Like-named read-outs stand apart in the source and are kept apart here.
Experiments:
[1] = system: macrophage and T cells dual tropic (89.6); test: P24 quantification (P24 EIA) in infected PBMCs, 89.6; assay type: cell-based, HIV-1; conditions: PBMC; for concentrations of the viral P24 antigen, 89.6(+): (+) original concentration of compound maintained after washing; for concentrations of the viral P24 antigen, 89.6(-): (-) compound removed after washing
Description: (§1) PBMCs were treated with various concentrations of CAPE, MC and PEDMC provided in Example 2 and simultaneously infected with […] and macrophage and T cells dual tropic (89.6) HIV-1 isolates. The next day, the added compounds were removed by washing methods or maintained at the same concentration. Samples were divided into two groups and the upernatants of the culture medium were collected at the 3 and 7 days after infection, respectively. The use of P24 EIA Reagent Kit of Abbott Laboratory compares the concentrations of viral P24 antigen with or without the compounds tested.

cells = test: Cellular activities in microculture tetrazolium (MTT) tests; assay type: cell-based
Description: The cellular activities were tested according to method as described in Alley M.C. et al, Cancer Res. 1988; 48(3):589-601. The principle of the method resides in that live cells can reduce MTT., i.e., 3-[4,5-dimethylthiazol-2-yl]-2,5-diphenyltetrazolium bromide)(tetrazolium salt) to formazan crystal through the dehydrogenase metabolism in Mitochondria. The crystal was dissolved in propanol and OD values were determined at 570 nm. The OD values can indicate the numbers of the live cells. The growth conditions of the cells were observed firstly. The cells were diluted to 2x10^4 cells/ml. 100µl sample taken by micropipet was placed in a 96-well plate. The plate was cultured for 24 hours as 37°C and 100µl of the compounds to be tested, which were prepared in medium, were added in each well. […] After culture for 4 hours, supernatant liquid was absorbed and 100 µl DMSO and 10µl /well was added. Each well was homogeneously mixed. The absorbance was determined at 570 nm.

[2] = system: various HIV isolates (NL-43, JRCSF or 89.6); test: P24 quantification, summary statements over all isolates; assay type: cell-based, HIV-1; conditions: Figures 3-5; PBMC infected with NL-43, JRCSF or 89.6
Description: as §1

T cells-tropic (JRCSF) = test: P24 quantification (P24 EIA) in infected PBMCs, JRCSF; assay type: cell-based, HIV-1; conditions: PBMC; for concentrations of the viral P24 antigen, JRCSF(+): (+) original concentration of compound maintained after washing; for concentrations of the viral P24 antigen, JRCSF(-): (-) compound removed after washing
Description: as §1

[3] = system: macrophage-tropic (NL-43); test: P24 quantification (P24 EIA) in infected PBMCs, NL-43; assay type: cell-based, HIV-1; conditions: PBMC; for concentrations of the viral P24 antigen, NL43(+): (+) original concentration of compound maintained after washing; for concentrations of the viral P24 antigen, NL43(-): (-) compound removed after washing
Description: as §1

[4] = system: Peripheral Blood Mononuclear Cells (PBMC); conditions: for The numbers of dead cells in 400 cells' count / % viability: 48 hours; for The numbers of dead cells in 400 cells' count: control 9 dead cells; for % viability: viable cells versus control (391);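 for all read-outs here: trypan blue dye exclusion, cells stained and counted from quadruplicate dishes, DMSO vehicle kept under 0.5%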

With `COc1ccc(C=CC(=O)OCCc2ccccc2)cc1OC` [PEDMC, phenethyl dimethyl caffeate] the “concentrations of the viral P24 antigen, 89.6(+)” value (“concentrations … 89.6(+)” for short) ([1]; 0.1 µM) was 1000 unit, the “concentrations of the viral P24 antigen, 89.6(-)” value (from here on “concentrations … 89.6(-)”) ([1]; 0.1 µM) was 1000 unit and the “concentrations … 89.6(+)” value ([1]; 0.5 µM) was 1000 unit. For the same compound, the “concentrations … 89.6(-)” value ([1]; 0.5 µM) was 1000 unit, the “concentrations … 89.6(+)” value ([1]; 1 µM) was 1000 unit and the “concentrations … 89.6(-)” value ([1]; 1 µM) was 1000 unit. For the same compound, the “concentrations … 89.6(+)” value ([1]; 5 µM) was 1000 unit, the “concentrations … 89.6(-)” value ([1]; 5 µM) was 1000 unit and the “concentrations … 89.6(+)” value ([1]; 10 µM) was 965.48 unit. For the same compound, the “concentrations … 89.6(-)” value ([1]; 10 µM) was 932.67 unit, the “concentrations … 89.6(+)” value ([1]; 25 µM) was 886.42 unit and the “concentrations … 89.6(-)” value ([1]; 25 µM) was 927.4 unit. The “concentrations … 89.6(+)” value ([1]; 50 µM) was 747.3 unit, the “concentrations … 89.6(-)” value ([1]; 50 µM) was 681.42 unit and the “concentrations … 89.6(+)” value ([1]; 100 µM) was 238.49 unit. For the same compound, the “concentrations … 89.6(-)” value ([1]; 100 µM) was 647 unit, the “concentrations … 89.6(+)” value ([1]; 200 µM) was 187.59 unit and the “concentrations … 89.6(-)” value ([1]; 200 µM) was 539.82 unit. For the same compound, the “concentrations … 89.6(+)” value ([1]; 400 µM) was 84.85 unit, the “concentrations … 89.6(-)” value ([1]; 400 µM) was 494.91 unit and the “MTT 24h, cellular activities” value (cells; 0.1 µM) was 92.38 relative percentage. For the same compound, the “MTT 48h, cellular activities” value (cells; 0.1 µM) was 97.31 relative percentage, the “MTT 24h, cellular activities” value (cells; 0.5 µM) was 98.72 relative percentage and the “MTT 48h, cellular activities” value (cells; 0.5 µM) was 98.72 relative percentage. For the same compound, the “MTT 24h, cellular activities” value (cells; 1 µM) was 98.26 relative percentage, the “MTT 48h, cellular activities” value (cells; 1 µM) was 105.28 relative percentage and the “MTT 24h, cellular activities” value (cells; 5 µM) was 94.33 relative percentage. For the same compound, the “MTT 48h, cellular activities” value (cells; 5 µM) was 104.07 relative percentage, the “MTT 24h, cellular activities” value (cells; 10 µM) was 98.72 relative percentage and the “MTT 48h, cellular activities” value (cells; 10 µM) was 98.08 relative percentage. For the same compound, the “MTT 24h, cellular activities” value (cells; 25 µM) was 107.27 relative percentage, the “MTT 48h, cellular activities” value (cells; 25 µM) was 98.78 relative percentage and the “MTT 24h, cellular activities” value (cells; 50 µM) was 102.03 relative percentage. The “MTT 48h, cellular activities” value (cells; 50 µM) was 97.15 relative percentage, the “MTT 24h, cellular activities” value (cells; 100 µM) was 106.06 relative percentage and the “MTT 48h, cellular activities” value (cells; 100 µM) was 97.74 relative percentage. For the same compound, the “MTT 24h, cellular activities” value (cells; 200 µM) was 97.93 relative percentage, the “MTT 48h, cellular activities” value (cells; 200 µM) was 96.32 relative percentage and the “MTT 24h, cellular activities” value (cells; 400 µM) was 94.8 relative percentage. For the same compound, the “MTT 48h, cellular activities” value (cells; 400 µM) was 93.76 relative percentage, the “cellular activities in MTT tests (result in words)” value (cells; Figures 1 and 2, 24 and 48 hours) was “no substantial effects” and the “viral replications (result in words)” value [2] was “significantly inhibited viral replications”. The “concentrations of the viral P24 antigen, JRCSF(+)” value (from here on “concentrations … JRCSF(+)”) (T cells-tropic (JRCSF); 0.1 µM) was 1000 unit, the “concentrations of the viral P24 antigen, JRCSF(-)” value (shortened to “concentrations … JRCSF(-)”) (T cells-tropic (JRCSF); 0.1 µM) was 1000 unit and the “concentrations … JRCSF(+)” value (T cells-tropic (JRCSF); 0.5 µM) was 1000 unit. The “concentrations … JRCSF(-)” value (T cells-tropic (JRCSF); 0.5 µM) was 1000 unit, the “concentrations … JRCSF(+)” value (T cells-tropic (JRCSF); 1 µM) was 1000 unit and the “concentrations … JRCSF(-)” value (T cells-tropic (JRCSF); 1 µM) was 1000 unit. The “concentrations … JRCSF(+)” value (T cells-tropic (JRCSF); 5 µM) was 1000 unit, the “concentrations … JRCSF(-)” value (T cells-tropic (JRCSF); 5 µM) was 1000 unit and the “concentrations … JRCSF(+)” value (T cells-tropic (JRCSF); 10 µM) was 1000 unit. For the same compound, the “concentrations … JRCSF(-)” value (T cells-tropic (JRCSF); 10 µM) was 1000 unit, the “concentrations … JRCSF(+)” value (T cells-tropic (JRCSF); 25 µM) was 1000 unit and the “concentrations … JRCSF(-)” value (T cells-tropic (JRCSF); 25 µM) was 1000 unit. The “concentrations … JRCSF(+)” value (T cells-tropic (JRCSF); 50 µM) was 1000 unit, the “concentrations … JRCSF(-)” value (T cells-tropic (JRCSF); 50 µM) was 1000 unit and the “concentrations … JRCSF(+)” value (T cells-tropic (JRCSF); 100 µM) was 892.45 unit. For the same compound, the “concentrations … JRCSF(-)” value (T cells-tropic (JRCSF); 100 µM) was 1000 unit, the “concentrations … JRCSF(+)” value (T cells-tropic (JRCSF); 200 µM) was 452.46 unit and the “concentrations … JRCSF(-)” value (T cells-tropic (JRCSF); 200 µM) was 1000 unit. The “concentrations … JRCSF(+)” value (T cells-tropic (JRCSF); 400 µM) was 348.96 unit, the “concentrations … JRCSF(-)” value (T cells-tropic (JRCSF); 400 µM) was 869.4 unit and the “concentrations of the viral P24 antigen, NL43(+)” value (“concentrations … NL43(+)” below) ([3]; 0.1 µM) was 1000 unit. The “concentrations of the viral P24 antigen, NL43(-)” value (“concentrations … NL43(-)” for short) ([3]; 0.1 µM) was 1000 unit, the “concentrations … NL43(+)” value ([3]; 0.5 µM) was 1000 unit and the “concentrations … NL43(-)” value ([3]; 0.5 µM) was 1000 unit. For the same compound, the “concentrations … NL43(+)” value ([3]; 1 µM) was 1000 unit, the “concentrations … NL43(-)” value ([3]; 1 µM) was 1000 unit and the “concentrations … NL43(+)” value ([3]; 5 µM) was 1000 unit. For the same compound, the “concentrations … NL43(-)” value ([3]; 5 µM) was 1000 unit, the “concentrations … NL43(+)” value ([3]; 10 µM) was 1000 unit and the “concentrations … NL43(-)” value ([3]; 10 µM) was 1000 unit. For the same compound, the “concentrations … NL43(+)” value ([3]; 25 µM) was 1000 unit, the “concentrations … NL43(-)” value ([3]; 25 µM) was 1000 unit and the “concentrations … NL43(+)” value ([3]; 50 µM) was 1000 unit. For the same compound, the “concentrations … NL43(-)” value ([3]; 50 µM) was 1000 unit, the “concentrations … NL43(+)” value ([3]; 100 µM) was 1000 unit and the “concentrations … NL43(-)” value ([3]; 100 µM) was 1000 unit. The “concentrations … NL43(+)” value ([3]; 200 µM) was 890.43 unit, the “concentrations … NL43(-)” value ([3]; 200 µM) was 981.43 unit and the “concentrations … NL43(+)” value ([3]; 400 µM) was 640.7 unit. For the same compound, the “concentrations … NL43(-)” value ([3]; 400 µM) was 898.4 unit, the “The numbers of dead cells in 400 cells' count” value (from here on “The numbers of dead cells”) ([4]; 0.1 µM) was 11 and the “% viability” value ([4]; 0.1 µM) was 389/391 (99.5%). The “The numbers of dead cells” value ([4]; 0.5 µM) was 10, the “% viability” value ([4]; 0.5 µM) was 390/391 (99.7%) and the “The numbers of dead cells” value ([4]; 1 µM) was 7. For the same compound, the “% viability” value ([4]; 1 µM) was 393/391 (100.5%), the “The numbers of dead cells” value ([4]; 5 µM) was 11 and the “% viability” value ([4]; 5 µM) was 389/391 (99.5%). The “The numbers of dead cells” value ([4]; 10 µM) was 9, the “% viability” value ([4]; 10 µM) was 391/391 (100%) and the “The numbers of dead cells” value ([4]; 25 µM) was 8. For the same compound, the “% viability” value ([4]; 25 µM) was 392/391 (100.3%), the “The numbers of dead cells” value ([4]; 50 µM) was 10 and the “% viability” value ([4]; 50 µM) was 390/391 (99.7%). The “The numbers of dead cells” value ([4]; 100 µM) was 10, the “% viability” value ([4]; 100 µM) was 390/391 (99.7%) and the “The numbers of dead cells” value ([4]; 200 µM) was 7. For the same compound, the “% viability” value ([4]; 200 µM) was 393/391 (100.5%), the “The numbers of dead cells” value ([4]; 400 µM) was 6 and the “% viability” value ([4]; 400 µM) was 394/391 (100.8%). The “viabilities of PBMC under high-dose versus low-dose treatments (result in words)” value ([4]; high dose up to 400 µM compared with 0.1-10 µM) was “no substantial differences”.
